Assay results reported in patent US8137705B2 (priority 2005, dated 2012).

Columns and labels:
Format in all cases: cell-based
[1] = tested on: E. coli O157:H7; assay: E. coli O157:H7 counts in water containing rumen content or feces treated with chemicals or chemical combinations; conditions: for inactivation of E. coli O157:H7 within 20 minutes: butyric acid >2%, caprylic acid >0.1%, data not shown; for E. coli O157:H7 counts (log10 cfu/ml) at min 0 / E. coli O157:H7 counts (log10 cfu/ml) at min 2 / E. coli O157:H7 counts (log10 cfu/ml) at min 5 / E. coli O157:H7 counts (log10 cfu/ml) at min 10 / E. coli O157:H7 counts (log10 cfu/ml) at min 20 / E. coli O157:H7 counts (log10 cfu/ml) at min 30 / E. coli O157:H7 counts (log10 cfu/ml) at min 60 / E. coli O157:H7 counts (log10 cfu/ml) at min 120: 21° C.; for E. coli O157:H7 counts (log10 cfu/ml) at min 0: 0 min; for E. coli O157:H7 counts (log10 cfu/ml) at min 2: 2 min; for E. coli O157:H7 counts (log10 cfu/ml) at min 5: 5 min; for E. coli O157:H7 counts (log10 cfu/ml) at min 10: 10 min; for E. coli O157:H7 counts (log10 cfu/ml) at min 20: 20 min; for E. coli O157:H7 counts (log10 cfu/ml) at min 30: 30 min; for E. coli O157:H7 counts (log10 cfu/ml) at min 60: 60 min; for E. coli O157:H7 counts (log10 cfu/ml) at min 120: 120 min
[2] = tested on: E. coli O26:H11; assay: E. coli O26:H11 counts in water containing rumen content or feces treated with chemical combinations; conditions: 21° C.; for E. coli O26:H11 counts (log10 cfu/ml) at min: 0: 0 min; for E. coli O26:H11 counts (log10 cfu/ml) at min: 2: 2 min; for E. coli O26:H11 counts (log10 cfu/ml) at min: 5: 5 min; for E. coli O26:H11 counts (log10 cfu/ml) at min: 10: 10 min; for E. coli O26:H11 counts (log10 cfu/ml) at min: 20: 20 min; for E. coli O26:H11 counts (log10 cfu/ml) at min: 30: 30 min; for E. coli O26:H11 counts (log10 cfu/ml) at min: 60: 60 min; for E. coli O26:H11 counts (log10 cfu/ml) at min: 120: 120 min
[3] = tested on: E. coli O111:NM; assay: E. coli O111:NM counts in water containing rumen content or feces treated with chemical combinations; conditions: 21° C.; for E. coli O111:NM counts (log10 cfu/ml) at min 0: 0 min; for E. coli O111:NM counts (log10 cfu/ml) at min 2: 2 min; for E. coli O111:NM counts (log10 cfu/ml) at min 5: 5 min; for E. coli O111:NM counts (log10 cfu/ml) at min 10: 10 min; for E. coli O111:NM counts (log10 cfu/ml) at min 20: 20 min; for E. coli O111:NM counts (log10 cfu/ml) at min 30: 30 min; for E. coli O111:NM counts (log10 cfu/ml) at min 60: 60 min; for E. coli O111:NM counts (log10 cfu/ml) at min 120: 120 min
[4] = water containing feces (20:1, v/w)
[5] = water containing rumen content (10:1, v/w)

CCCC(=O)O [0.5% butyric acid, butyric acid]
inactivation of E. coli O157:H7 within 20 minutes [1]: substantial inactivation
E. coli O157:H7 counts (log10 cfu/ml) at min 0 [1, 4]: 6.0 log10 cfu/ml
E. coli O157:H7 counts (log10 cfu/ml) at min 2 [1, 4]: 6.0 log10 cfu/ml
E. coli O157:H7 counts (log10 cfu/ml) at min 5 [1, 4]: 6.0 log10 cfu/ml
E. coli O157:H7 counts (log10 cfu/ml) at min 10 [1, 4]: 6.1 log10 cfu/ml
E. coli O157:H7 counts (log10 cfu/ml) at min 20 [1, 4]: 6.1 log10 cfu/ml
E. coli O157:H7 counts (log10 cfu/ml) at min 30 [1, 4]: 6.1 log10 cfu/ml
E. coli O157:H7 counts (log10 cfu/ml) at min 60 [1, 4]: 6.0 log10 cfu/ml
E. coli O157:H7 counts (log10 cfu/ml) at min 120 [1, 4]: 6.0 log10 cfu/ml
E. coli O157:H7 counts (log10 cfu/ml) at min 0 [1, 5]: 5.9 log10 cfu/ml
E. coli O157:H7 counts (log10 cfu/ml) at min 2 [1, 5]: 5.9 log10 cfu/ml
E. coli O157:H7 counts (log10 cfu/ml) at min 5 [1, 5]: 5.9 log10 cfu/ml
E. coli O157:H7 counts (log10 cfu/ml) at min 10 [1, 5]: 5.8 log10 cfu/ml
E. coli O157:H7 counts (log10 cfu/ml) at min 20 [1, 5]: 5.7 log10 cfu/ml
E. coli O157:H7 counts (log10 cfu/ml) at min 30 [1, 5]: 5.8 log10 cfu/ml
E. coli O157:H7 counts (log10 cfu/ml) at min 60 [1, 5]: 5.6 log10 cfu/ml
E. coli O157:H7 counts (log10 cfu/ml) at min 120 [1, 5]: 5.7 log10 cfu/ml
E. coli O26:H11 counts (log10 cfu/ml) at min: 0 [2, 4]: 5.5 log10 cfu/ml
E. coli O26:H11 counts (log10 cfu/ml) at min: 2 [2, 4]: 5.4 log10 cfu/ml
E. coli O26:H11 counts (log10 cfu/ml) at min: 5 [2, 4]: 5.4 log10 cfu/ml
E. coli O26:H11 counts (log10 cfu/ml) at min: 10 [2, 4]: 5.4 log10 cfu/ml
E. coli O26:H11 counts (log10 cfu/ml) at min: 20 [2, 4]: 5.5 log10 cfu/ml
E. coli O26:H11 counts (log10 cfu/ml) at min: 30 [2, 4]: 5.2 log10 cfu/ml
E. coli O26:H11 counts (log10 cfu/ml) at min: 60 [2, 4]: 5.2 log10 cfu/ml
E. coli O26:H11 counts (log10 cfu/ml) at min: 120 [2, 4]: 5.0 log10 cfu/ml
E. coli O26:H11 counts (log10 cfu/ml) at min: 0 [2, 5]: 5.4 log10 cfu/ml
E. coli O26:H11 counts (log10 cfu/ml) at min: 2 [2, 5]: 5.4 log10 cfu/ml
E. coli O26:H11 counts (log10 cfu/ml) at min: 5 [2, 5]: 5.3 log10 cfu/ml
E. coli O26:H11 counts (log10 cfu/ml) at min: 10 [2, 5]: 5.4 log10 cfu/ml
E. coli O26:H11 counts (log10 cfu/ml) at min: 20 [2, 5]: 5.4 log10 cfu/ml
E. coli O26:H11 counts (log10 cfu/ml) at min: 30 [2, 5]: 5.2 log10 cfu/ml
E. coli O26:H11 counts (log10 cfu/ml) at min: 60 [2, 5]: 5.4 log10 cfu/ml
E. coli O26:H11 counts (log10 cfu/ml) at min: 120 [2, 5]: 5.1 log10 cfu/ml
E. coli O111:NM counts (log10 cfu/ml) at min 0 [3, 4]: 5.6 log10 cfu/ml
E. coli O111:NM counts (log10 cfu/ml) at min 2 [3, 4]: 5.6 log10 cfu/ml
E. coli O111:NM counts (log10 cfu/ml) at min 5 [3, 4]: 5.5 log10 cfu/ml
E. coli O111:NM counts (log10 cfu/ml) at min 10 [3, 4]: 5.6 log10 cfu/ml
E. coli O111:NM counts (log10 cfu/ml) at min 20 [3, 4]: 5.6 log10 cfu/ml
E. coli O111:NM counts (log10 cfu/ml) at min 30 [3, 4]: 5.6 log10 cfu/ml
E. coli O111:NM counts (log10 cfu/ml) at min 60 [3, 4]: 5.6 log10 cfu/ml
E. coli O111:NM counts (log10 cfu/ml) at min 120 [3, 4]: 5.6 log10 cfu/ml
E. coli O111:NM counts (log10 cfu/ml) at min 0 [3, 5]: 5.5 log10 cfu/ml
E. coli O111:NM counts (log10 cfu/ml) at min 2 [3, 5]: 5.5 log10 cfu/ml
E. coli O111:NM counts (log10 cfu/ml) at min 5 [3, 5]: 5.5 log10 cfu/ml
E. coli O111:NM counts (log10 cfu/ml) at min 10 [3, 5]: 5.6 log10 cfu/ml
E. coli O111:NM counts (log10 cfu/ml) at min 20 [3, 5]: 5.6 log10 cfu/ml
E. coli O111:NM counts (log10 cfu/ml) at min 30 [3, 5]: 5.4 log10 cfu/ml
E. coli O111:NM counts (log10 cfu/ml) at min 60 [3, 5]: 5.5 log10 cfu/ml
E. coli O111:NM counts (log10 cfu/ml) at min 120 [3, 5]: 5.6 log10 cfu/ml

CCCCCCCC(=O)O [0.05% caprylic acid, caprylic acid]
inactivation of E. coli O157:H7 within 20 minutes [1]: substantial inactivation
E. coli O157:H7 counts (log10 cfu/ml) at min 0 [1, 4]: 6.0 log10 cfu/ml
E. coli O157:H7 counts (log10 cfu/ml) at min 2 [1, 4]: 5.6 log10 cfu/ml
E. coli O157:H7 counts (log10 cfu/ml) at min 5 [1, 4]: 4.3 log10 cfu/ml
E. coli O157:H7 counts (log10 cfu/ml) at min 10 [1, 4]: 2.3 log10 cfu/ml
E. coli O157:H7 counts (log10 cfu/ml) at min 20 [1, 4]: 2.0 log10 cfu/ml
E. coli O157:H7 counts (log10 cfu/ml) at min 30 [1, 4]: 2.0 log10 cfu/ml
E. coli O157:H7 counts (log10 cfu/ml) at min 60 [1, 4]: 2.0 log10 cfu/ml
E. coli O157:H7 counts (log10 cfu/ml) at min 120 [1, 4]: 1.7 log10 cfu/ml
E. coli O157:H7 counts (log10 cfu/ml) at min 0 [1, 5]: 6.0 log10 cfu/ml
E. coli O157:H7 counts (log10 cfu/ml) at min 2 [1, 5]: 6.0 log10 cfu/ml
E. coli O157:H7 counts (log10 cfu/ml) at min 5 [1, 5]: 6.0 log10 cfu/ml
E. coli O157:H7 counts (log10 cfu/ml) at min 10 [1, 5]: 5.9 log10 cfu/ml
E. coli O157:H7 counts (log10 cfu/ml) at min 20 [1, 5]: 6.0 log10 cfu/ml
E. coli O157:H7 counts (log10 cfu/ml) at min 30 [1, 5]: 5.9 log10 cfu/ml
E. coli O157:H7 counts (log10 cfu/ml) at min 60 [1, 5]: 5.9 log10 cfu/ml
E. coli O157:H7 counts (log10 cfu/ml) at min 120 [1, 5]: 6.0 log10 cfu/ml
E. coli O26:H11 counts (log10 cfu/ml) at min: 0 [2, 4]: 5.5 log10 cfu/ml
E. coli O26:H11 counts (log10 cfu/ml) at min: 2 [2, 4]: 5.4 log10 cfu/ml
E. coli O26:H11 counts (log10 cfu/ml) at min: 5 [2, 4]: 5.5 log10 cfu/ml
E. coli O26:H11 counts (log10 cfu/ml) at min: 10 [2, 4]: 5.5 log10 cfu/ml
E. coli O26:H11 counts (log10 cfu/ml) at min: 20 [2, 4]: 5.3 log10 cfu/ml
E. coli O26:H11 counts (log10 cfu/ml) at min: 30 [2, 4]: 5.2 log10 cfu/ml
E. coli O26:H11 counts (log10 cfu/ml) at min: 60 [2, 4]: 5.2 log10 cfu/ml
E. coli O26:H11 counts (log10 cfu/ml) at min: 120 [2, 4]: 5.0 log10 cfu/ml
E. coli O26:H11 counts (log10 cfu/ml) at min: 0 [2, 5]: 5.3 log10 cfu/ml
E. coli O26:H11 counts (log10 cfu/ml) at min: 2 [2, 5]: 5.4 log10 cfu/ml
E. coli O26:H11 counts (log10 cfu/ml) at min: 5 [2, 5]: 5.2 log10 cfu/ml
E. coli O26:H11 counts (log10 cfu/ml) at min: 10 [2, 5]: 5.4 log10 cfu/ml
E. coli O26:H11 counts (log10 cfu/ml) at min: 20 [2, 5]: 5.3 log10 cfu/ml
E. coli O26:H11 counts (log10 cfu/ml) at min: 30 [2, 5]: 5.4 log10 cfu/ml
E. coli O26:H11 counts (log10 cfu/ml) at min: 60 [2, 5]: 5.4 log10 cfu/ml
E. coli O26:H11 counts (log10 cfu/ml) at min: 120 [2, 5]: 5.4 log10 cfu/ml
E. coli O111:NM counts (log10 cfu/ml) at min 0 [3, 4]: 5.7 log10 cfu/ml
E. coli O111:NM counts (log10 cfu/ml) at min 2 [3, 4]: 5.5 log10 cfu/ml
E. coli O111:NM counts (log10 cfu/ml) at min 5 [3, 4]: 5.7 log10 cfu/ml
E. coli O111:NM counts (log10 cfu/ml) at min 10 [3, 4]: 5.5 log10 cfu/ml
E. coli O111:NM counts (log10 cfu/ml) at min 20 [3, 4]: 5.6 log10 cfu/ml
E. coli O111:NM counts (log10 cfu/ml) at min 30 [3, 4]: 5.7 log10 cfu/ml
E. coli O111:NM counts (log10 cfu/ml) at min 60 [3, 4]: 5.5 log10 cfu/ml
E. coli O111:NM counts (log10 cfu/ml) at min 120 [3, 4]: 5.4 log10 cfu/ml
E. coli O111:NM counts (log10 cfu/ml) at min 0 [3, 5]: 5.6 log10 cfu/ml
E. coli O111:NM counts (log10 cfu/ml) at min 2 [3, 5]: 5.5 log10 cfu/ml
E. coli O111:NM counts (log10 cfu/ml) at min 5 [3, 5]: 5.7 log10 cfu/ml
E. coli O111:NM counts (log10 cfu/ml) at min 10 [3, 5]: 5.5 log10 cfu/ml
E. coli O111:NM counts (log10 cfu/ml) at min 20 [3, 5]: 5.8 log10 cfu/ml
E. coli O111:NM counts (log10 cfu/ml) at min 30 [3, 5]: 5.6 log10 cfu/ml
E. coli O111:NM counts (log10 cfu/ml) at min 60 [3, 5]: 5.4 log10 cfu/ml
E. coli O111:NM counts (log10 cfu/ml) at min 120 [3, 5]: 5.5 log10 cfu/ml
